# What was measured:
# Assay in all cases: relative viability (nuclei count vs DMSO), 5 days (fraction); higher = more cells survive
# Sunitinib + Dasatinib = compound: CCN(CC)CCNC(=O)c1c(C)[nH]c(/C=C2\C(=O)Nc3ccc(F)cc32)c1C [Sunitinib] + Cc1nc(Nc2ncc(C(=O)Nc3c(C)cccc3Cl)s2)cc(N2CCN(CCO)CC2)n1 [Dasatinib] (partner 0.075 µM)
# Method in brief: (§1)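 Lung cancer cell lines were seeded in 1536-well plates and dosed by pin tool the next day, with either a single drug or a fixed anchor-drug dose combined with five library-drug doses (not always all listed) spaced in √10 steps. Five days later, one step fixed the cells and stained their nuclei (final 0.05% Triton X-100, 1% formaldehyde, 1 ug/ml Hoechst), and nuclei were counted on 4× images. Relative viability is the nuclei count in treated wells divided by the count in vehicle wells, and each value is the median of duplicate plates.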
# Sunitinib + Luminespib = compound: CCN(CC)CCNC(=O)c1c(C)[nH]c(/C=C2\C(=O)Nc3ccc(F)cc32)c1C [Sunitinib] + CCNC(=O)c1noc(-c2cc(C(C)C)c(O)cc2O)c1-c1ccc(CN2CCOCC2)cc1 [Luminespib] (partner 0.01 µM)
# Method in brief: as §1
# Sunitinib + Foretinib = compound: CCN(CC)CCNC(=O)c1c(C)[nH]c(/C=C2\C(=O)Nc3ccc(F)cc32)c1C [Sunitinib] + COc1cc2c(Oc3ccc(NC(=O)C4(C(=O)Nc5ccc(F)cc5)CC4)cc3F)ccnc2cc1OCCCN1CCOCC1 [Foretinib] (partner 0.25 µM)
# Method in brief: as §1
# Sunitinib + Decitabine = compound: CCN(CC)CCNC(=O)c1c(C)[nH]c(/C=C2\C(=O)Nc3ccc(F)cc32)c1C [Sunitinib] + Nc1ncn([C@H]2C[C@H](O)[C@@H](CO)O2)c(=O)n1 [Decitabine] (partner 2 µM)
# Method in brief: as §1
Cell Line,relative viability (Sunitinib + Dasatinib; first compound 0.02 µM),relative viability (Sunitinib + Dasatinib; first compound 0.06325 µM),relative viability (Sunitinib + Dasatinib; first compound 0.2 µM),relative viability (Sunitinib + Dasatinib; first compound 0.6325 µM),relative viability (Sunitinib + Dasatinib; first compound 2 µM),relative viability (Sunitinib + Luminespib; first compound 0.02 µM),relative viability (Sunitinib + Luminespib; first compound 0.06325 µM),relative viability (Sunitinib + Luminespib; first compound 0.2 µM),relative viability (Sunitinib + Luminespib; first compound 0.6325 µM),relative viability (Sunitinib + Luminespib; first compound 2 µM),relative viability (Sunitinib + Foretinib; first compound 0.02 µM),relative viability (Sunitinib + Foretinib; first compound 0.06325 µM),relative viability (Sunitinib + Foretinib; first compound 0.2 µM),relative viability (Sunitinib + Foretinib; first compound 2 µM),relative viability (Sunitinib + Decitabine; first compound 0.02 µM),relative viability (Sunitinib + Decitabine; first compound 0.06325 µM),relative viability (Sunitinib + Decitabine; first compound 0.2 µM),relative viability (Sunitinib + Decitabine; first compound 0.6325 µM),relative viability (Sunitinib + Decitabine; first compound 2 µM),relative viability (Sunitinib + Foretinib; first compound 0.6325 µM)
NCI-H1734,0.456,0.43,0.503,0.451,0.46,0.166,0.186,0.188,0.149,0.212,0.815,0.896,0.966,0.752,0.528,0.495,0.514,0.477,0.497,
NCI-H1755,0.41,0.46,0.441,0.424,0.448,0.435,0.497,0.499,0.441,0.334,0.891,0.897,0.959,0.936,0.69,,0.663,0.692,0.76,0.981
NCI-H1793,0.397,0.366,0.429,0.444,0.346,0.19,0.166,0.165,0.191,0.166,0.649,0.675,0.753,0.593,,0.496,0.487,0.549,0.49,0.723
NCI-H1915,0.302,0.346,0.322,0.34,0.296,0.5,0.846,0.822,0.869,0.83,1.07,1.11,1.14,1.15,0.266,0.278,0.264,0.26,0.271,1.13
NCI-H1944,0.205,0.246,0.211,0.239,0.211,0.738,0.722,0.752,0.769,0.638,0.738,1,0.962,0.863,0.477,0.415,0.466,0.42,0.449,0.944
NCI-H1975,0.36,0.403,0.399,0.423,0.344,0.278,0.185,0.185,0.173,0.172,0.899,1.03,1.07,1.01,0.369,0.408,0.405,0.427,0.391,1.01
NCI-H1993,0.735,0.545,0.779,0.654,0.645,0.741,0.941,0.866,0.654,0.79,0.746,0.691,0.789,0.73,0.514,0.632,0.605,0.577,0.61,0.685
NCI-H2009,0.291,0.379,0.288,0.393,0.309,1.02,1.05,1.18,1.04,1.04,1.19,1.25,1.31,1.3,0.349,0.364,0.371,0.424,0.373,1.27
NCI-H2023,0.459,0.582,0.628,0.707,0.642,0.602,0.671,1.08,0.765,0.611,0.739,0.887,0.981,0.78,0.242,0.225,0.247,0.243,0.217,0.659
NCI-H2085,0.271,0.269,0.222,0.256,0.26,0.494,0.399,0.489,0.46,0.377,0.851,,1.02,0.935,0.527,0.55,0.554,0.595,0.579,0.957
NCI-H2087,0.717,1.25,1,0.945,0.669,0.195,0.172,0.166,0.158,0.174,1.12,1.28,1.15,1.11,0.273,0.274,0.315,0.245,0.264,1.07
NCI-H2126,0.601,0.67,0.636,0.719,0.638,0.875,0.918,0.897,0.985,0.866,1.13,1.31,1.34,1.31,0.589,0.572,0.532,0.592,0.579,1.47
NCI-H2170,0.505,0.653,0.656,0.548,0.544,0.642,0.586,0.729,0.686,0.565,0.987,1.01,1.05,0.843,0.452,0.465,0.484,0.422,0.412,1.01
NCI-H2342,0.327,0.288,0.301,0.338,0.336,0.658,0.67,0.868,0.778,0.838,0.901,1.17,1.15,1.16,0.751,0.784,0.708,0.819,0.718,1.18
NCI-H2347,0.255,0.292,0.302,0.257,0.394,0.486,0.355,0.377,0.238,0.558,0.704,0.708,1.03,1.36,0.562,0.617,0.642,0.66,,
NCI-H2405,0.214,0.206,0.224,0.23,0.212,0.672,0.616,0.854,0.947,0.722,1.07,1.06,1.09,1.11,0.811,0.8,0.761,0.754,0.761,1.05
NCI-H3122,0.725,0.985,0.84,0.932,0.853,0.0868,0.127,0.0866,0.0951,0.0797,0.904,0.963,1.04,0.97,0.412,0.439,0.542,0.364,0.453,0.976
PC-3 [JPC-3],1.04,0.903,1.19,1.05,0.967,0.681,0.672,0.755,0.762,0.692,,1.05,1.12,1.01,0.89,0.788,,0.79,0.764,1.02
PC-14,0.291,0.232,0.269,0.385,0.261,0.18,0.121,0.201,0.144,0.216,0.942,0.939,1.08,0.874,0.2,0.23,0.239,0.23,0.252,1
RERF-LC-KJ,0.768,0.897,0.832,0.821,0.847,1.02,1.25,1.35,1.4,1.14,0.873,0.907,0.903,0.919,0.713,0.743,0.651,0.683,0.777,0.87
SK-LU-1,0.179,0.185,0.176,0.171,0.161,0.21,0.187,0.21,0.216,0.2,,0.901,1.06,0.581,0.571,0.688,0.635,0.651,0.603,0.834
SK-MES-1,0.354,0.457,0.341,0.319,0.308,0.729,0.708,0.795,,0.7,0.932,0.932,1.03,0.894,0.345,0.369,0.368,0.389,0.379,1.09
SW 1573,0.464,0.55,0.64,0.526,0.391,0.156,0.248,0.247,0.189,0.186,0.879,0.928,0.889,0.998,0.403,0.508,0.556,0.62,0.554,1.09
UMC-11,0.454,0.525,0.584,0.525,0.424,1.01,1.02,1.14,1.1,0.943,0.962,1.03,1.11,0.956,0.553,0.551,0.583,0.737,0.597,1.06
